# Values of other authors, collected in patent US8551986B2, “Treatment of sequelae of psychiatric disorders” (The McLean Hospital Corporation, priority 2005, dated 2013).
# Conditions: human studies, all but one study; cited from earlier work
row,Compound,caloric intake
1,C=C1CC[C@@]2(O)[C@H]3Cc4ccc(O)c5c4[C@@]2(CCN3CC2CC2)[C@H]1O5 [nalmefene],significant decreases
2,O=C1CC[C@@]2(O)[C@H]3Cc4ccc(O)c5c4[C@@]2(CCN3CC2CC2)[C@H]1O5 [naltrexone],significant decreases
